From US20010055590A1, “Method for enhancing myoblast migration and invasion in the context of gene therapy” (priority 1999, published 2001) come the findings set out here.

Experiment [1] concerns mouse myoblasts. In words: In vitro mouse myoblast migration assay (gelatin-coated membrane). Format: cell-based. To be noted: 12 hours; for stimulation of mouse myoblast migration over the DMEM control: 25 ng/ml bFGF, 50 μg/ml fibronectin, 10 ng/ml HGF, 2 ng/ml TGF-β1; for effect on mouse myoblast migration: stimulant in bottom chamber; for effect on bFGF-stimulated mouse myoblast migration: 0.05 units/ml plasmin or 50 mM NAC in top chamber; for effect on migration stimulated by bFGF and fibronectin in combination: 0.05 units/ml plasmin or 50 mM NAC. How it is done:
Mouse myoblasts were previously isolated from hind limb muscles of 4-6 week old severe combined immunodeficient (SCID) mice and clonally purified from contaminating fibroblasts (Yao et al. “Primary myoblast-mediated gene: transfer: persistent expression of human factor IX in mice” Gene Therapy 1:99-107, 1994). Myoblasts (approximately 1×10^6 cells) were plated on 6 cm tissue culture plates coated with 0.5% gelatin (Sigma, St. Louis, Mo.) and grown in growth medium consisting of Dulbecco's Modified Eagle Medium (DMEM) (Gibco BRL, Gaithersburg Md.) supplemented with 20% fetal bovine serum (FBS; Gibco) and 0.5% chick embryo extract (CEE; Gibco). All animal studies were carried out following the institutional guidelines for ethical animal use. Human myoblasts were isolated using trypsin digestion from abdominal wall or chest wall muscle biopsies, and surgery. Written consent was obtained from all patients prior to biopsy isolation as approved by the University Hospital's Institutional Regulation Board on the use of human subjects. Cells were preplated on uncoated plates for 1 hour to separate muscle fibroblasts. […] All experiments were done with myoblasts of passage 7 or lower. Myoblast migration and invasion were examined using a commercially available in vitro cell migration and invasion assay kit (Biocoat, Becton Dickinson, Franklin Lakes, N.J.) as described by Albini et al. (A rapid in vitro assay for quantitating the invasive potential of tumor cells Cancer Res 47:3239-3245, 1987). Myoblasts were grown to approximately 70% confluence, rinsed three times in serum-free DMEM, followed by incubation for 3 hours in 0.2% bovine serum albumin (BSA) in DMEM to eliminate the effects of serum. Cells were then trypsinized and collected by centrifugation. Cells were resuspended in serum-free DMEM at a density of 1×10^5 cells/ml, and 0.5 ml aliquots of cell suspension were added to the top chamber. […] Fibronectin subfragments of 45 KDa (Sigma), 120 kDa (Gibco), 63 kDa (Retronectin, Takara) and 70 KDa (Sigma) were used alone or in combination. […] For migration studies, the upper chamber membrane was coated with 0.1% gelatin and cells were allowed to migrate for 8-12 hours, while for invasion studies, the upper membrane was coated with 5 μl of Matrigel® diluted to 5 mg/ml in sterile phosphate buffered saline (PBS) and cells were allowed to invade for 24 hours. The top side of the insert membrane was scrubbed free of cells using a cotton swab and the bottom side was stained using the Leukostat-I system (Fisher Diagnostics, Pittsburgh, Pa.). The number of cells per field was counted in 10 randomly selected fields and averaged for each condition. To evaluate the effects of inactivation or activation of MMPs, aliquots (0.05 units in 50 μl PBS) of purified human plasmin (Sigma) or 50 mM N-acetyl cysteine (NAC; Sigma) were added with the cells to the top chamber of the migration assay and growth factor was added to the bottom. […] Myoblasts (5×10^4 cells/well) were stimulated with various growth factors and fibronectin, and their ability to migrate or invade through a Matrigel® barrier (panel a, mouse myoblast migration at 12 hours; panel b, mouse myoblast invasion at 24 hours). […] Bars represent mean ±SEM from a minimum of 3 separate experiments. […] Further studies were done to elucidate the role of MMPs in cytokine-mediated mouse myoblast migration.

Experiment [2] relates to human myoblasts. In words: In vitro human myoblast migration assay. It is filed as cell-based. To be noted: for stimulation of human myoblast migration over the BSA control level: 12 hour time point; for effect on stimulated human myoblast migration: plasmin or NAC, FIG. 7c, migration induced by PDGF-BB. How it is done: Mouse myoblasts were previously isolated from hind limb muscles of 4-6 week old severe combined immunodeficient (SCID) mice and clonally purified from contaminating fibroblasts (Yao et al. “Primary myoblast-mediated gene: transfer: persistent expression of human factor IX in mice” Gene Therapy 1:99-107, 1994). Myoblasts (approximately 1×10^6 cells) were plated on 6 cm tissue culture plates coated with 0.5% gelatin (Sigma, St. Louis, Mo.) and grown in growth medium consisting of Dulbecco's Modified Eagle Medium (DMEM) (Gibco BRL, Gaithersburg Md.) supplemented with 20% fetal bovine serum (FBS; Gibco) and 0.5% chick embryo extract (CEE; Gibco). All animal studies were carried out following the institutional guidelines for ethical animal use. Human myoblasts were isolated using trypsin digestion from abdominal wall or chest wall muscle biopsies, and surgery. Written consent was obtained from all patients prior to biopsy isolation as approved by the University Hospital's Institutional Regulation Board on the use of human subjects. Cells were preplated on uncoated plates for 1 hour to separate muscle fibroblasts. Approximately 95% of the cells were desmin-positive following immunohistochemical staining of representative culture samples, and were capable of differentiation into myotubes, indicating high purity of the myoblast preparation. All experiments were done with myoblasts of passage 7 or lower. Myoblast migration and invasion were examined using a commercially available in vitro cell migration and invasion assay kit (Biocoat, Becton Dickinson, Franklin Lakes, N.J.) as described by Albini et al. (A rapid in vitro assay for quantitating the invasive potential of tumor cells Cancer Res 47:3239-3245, 1987). Myoblasts were grown to approximately 70% confluence, rinsed three times in serum-free DMEM, followed by incubation for 3 hours in 0.2% bovine serum albumin (BSA) in DMEM to eliminate the effects of serum. Cells were then trypsinized and collected by centrifugation. Cells were resuspended in serum-free DMEM at a density of 1×10^5 cells/ml, and 0.5 ml aliquots of cell suspension were added to the top chamber. […] Fibronectin subfragments of 45 KDa (Sigma), 120 kDa (Gibco), 63 kDa (Retronectin, Takara) and 70 KDa (Sigma) were used alone or in combination. The growth factor concentrations used were those which could produce maximal effects as examined in the present studies by extending from values reported by Bischoff (“Chemotaxis of skeletal muscle satellite cells” Devel. Dynamics 208:505-515, 1997). For migration studies, the upper chamber membrane was coated with 0.1% gelatin and cells were allowed to migrate for 8-12 hours, while for invasion studies, the upper membrane was coated with 5 μl of Matrigel® diluted to 5 mg/ml in sterile phosphate buffered saline (PBS) and cells were allowed to invade for 24 hours. The top side of the insert membrane was scrubbed free of cells using a cotton swab and the bottom side was stained using the Leukostat-I system (Fisher Diagnostics, Pittsburgh, Pa.). The number of cells per field was counted in 10 randomly selected fields and averaged for each condition. To evaluate the effects of inactivation or activation of MMPs, aliquots (0.05 units in 50 μl PBS) of purified human plasmin (Sigma) or 50 mM N-acetyl cysteine (NAC; Sigma) were added with the cells to the top chamber of the migration assay and growth factor was added to the bottom. […] The effects of growth factors on human myoblast migration in vitro (12 hour time point) were somewhat different from those observed with mouse myoblasts. […] The greatly elevated level of migration of human myoblasts was due in part to the extremely low migration in the BSA control (basal level) of human cells compared to mouse cells. The largest effects on human myoblast migration were produced by fibronectin (100-fold), PDGF (about 62-fold), TGF-β (about 54-fold) and HGF (46-fold) over the control level, while bFGF produced only a 37-fold stimulation (FIG. 7a). […]

As for human serum fibronectin, in experiment [1], the “stimulation of mouse myoblast migration over the DMEM control” value is 14 fold and the “effect on mouse myoblast migration” value is reported as “stimulated migration of mouse myoblasts to various degrees”. In experiment [2], the “stimulation of human myoblast migration over the BSA control level” value was found to be 100 fold.
Turning to `CC(=O)N[C@@H](CS)C(=O)O` [NAC, N-acetyl cysteine, reference compound], the “effect on migration stimulated by combination of bFGF and plasmin” value in experiment [1] (50 mM NAC) is recorded as “dramatic reduction”. Besides, in experiment [1], the “effect on bFGF-stimulated mouse myoblast migration” value is “efficiently reduced the effect of bFGF on mouse myoblast migration to a level similar to the BSA control”; the “effect on migration stimulated by bFGF and fibronectin in combination” value was “attenuated the effects”. Besides, in experiment [2], the “effect on stimulated human myoblast migration” value is recorded as “greatly reduced”.
Take “bovine basic fibroblast growth factor [bFGF]”: in experiment [1], the “stimulation of mouse myoblast migration over the DMEM control” value was found to be 12 fold and the “effect on mouse myoblast migration” value is given as “stimulated migration of mouse myoblasts to various degrees”. Further, in experiment [2], the “stimulation of human myoblast migration over the BSA control level” value stood at 37 fold.

B1: purified human plasmin (protein, UniProt P00747 20-580; P00747 581-810, looked up)
Plasmin heavy chain A: EPLDDYVNTQGASLFSVTKKQLGAGSIEECAAKCEEDEEFTCRAFQYHSKEQQCVIMAENRKSSIIIRMRDVVLFEKKVYLSECKTGNGKNYRGTMSKTKNGITCQKWSSTSPHRPRFSPATHPSEGLEENYCRNPDNDPQGPWCYTTDPEKRYDYCDILECEEECMHCSGENYDGKISKTMSGLECQAWDSQSPHAHGYIPSKFPNKNLKKNYCRNPDRELRPWCFTTDPNKRWELCDIPRCTTPPPSSGPTYQCLKGTGENYRGNVAVTVSGHTCQHWSAQTPHTHNRTPENFPCKNLDENYCRNPDGKRAPWCHTTNSQVRWEYCKIPSCDSSPVSTEQLAPTAPPELTPVVQDCYHGDGQSYRGTSSTTTTGKKCQSWSSMTPHRHQKTPENYPNAGLTMNYCRNPDADKGPWCFTTDPSVRWEYCNLKKCSGTEASVVAPPPVVLLPDVETPSEEDCMFGNGKGYRGKRATTVTGTPCQDWAAQEPHRHSIFTPETNPRAGLEKNYCRNPDGDVGGPWCYTTNPRKLYDYCDVPQCAAPSFDCGKPQVEPKKCPGR
Plasmin light chain B: VVGGCVAHPHSWPWQVSLRTRFGMHFCGGTLISPEWVLTAAHCLEKSPRPSSYKVILGAHQEVNLEPHVQEIEVSRLFLEPTRKDIALLKLSSPAVITDKVIPACLPSPNYVVADRTECFITGWGETQGTFGAGLLKEAQLPVIENKVCNRYEFLNGRVQSTELCAGHLAGGTDSCQGDSGGPLVCFEKDKYILQGVTSWGLGCARPNKPGVYVRVSRFVTWIEGVMRNN
modifications: Plasmin
As for B1, in experiment [1], the “effect on bFGF-stimulated mouse myoblast migration” value is “increased the migrational response to bFGF by nearly twofold”; the “effect on migration stimulated by bFGF and fibronectin in combination” value is reported as “attenuated the effect”. Moreover, in experiment [1] (0.05 units/ml plasmin, no growth factor), the “effect alone on mouse myoblast migration compared to the control” value is “slightly negative effect”. Further, the “effect on stimulated human myoblast migration” value in experiment [2] was “significantly increased”.
